In patent US20250346593A1, “IMIDAZO(1,2-1)PYRIDINE DERIVATIVES AS RIPK2 INHIBITORS” (Interline Therapeutics, Inc., priority 2022, published 2025):
Like-named read-outs stand apart in the source and are kept apart here.

Assays:
[1] = biological target: GST-RIPK2 fusion protein (human RIPK2 amino acids 1-310) (Homo sapiens (Human), UniProt O43353); assay: RIPK2 binding competition assay (TR-FRET, Tracer 199)
[2] = tested on: NF-κB pathway (SEAP) in THP1-Dual cells; assay: THP-1 Dual cell SEAP assay (L18-MDP stimulated); format: cell-based; conditions: read-out: NFkB THP1 IC50
[3] = read-out: RIPK2 IC50, RIPK2 binding competition assay

Sequence of GST-RIPK2 fusion protein (human RIPK2 amino acids 1-310) (O43353 1-310): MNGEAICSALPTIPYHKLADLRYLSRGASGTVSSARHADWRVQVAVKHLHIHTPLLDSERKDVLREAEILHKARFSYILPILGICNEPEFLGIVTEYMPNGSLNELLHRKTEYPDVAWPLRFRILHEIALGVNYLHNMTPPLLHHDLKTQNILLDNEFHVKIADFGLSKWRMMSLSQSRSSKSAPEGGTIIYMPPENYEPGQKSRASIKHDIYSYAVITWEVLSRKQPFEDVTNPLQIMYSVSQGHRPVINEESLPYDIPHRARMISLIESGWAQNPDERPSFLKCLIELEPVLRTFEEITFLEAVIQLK

SMILES	IC50 [1] [nM]	IC50 ([2]; Homo sapiens, THP1-Dual) [nM]	IC50 [1, 3] [nM]	IC50 [2] [nM]
COc1cc2ncc(-c3cc(C)c(OC)c(N)n3)n2cc1S(=O)(=O)C(C)(C)C [Example 335, 6-(6-(tert-butylsulfonyl)-7-methoxyimidazo[1,2-a]pyridin-3-yl)-3-methoxy-4-methylpyridin-2-amine]	> 20	> 1000		
COc1cc2ncc(-c3ccc(OC)c(N)n3)n2cc1S(=O)(=O)C(C)(C)C [Example 336, 6-(6-(tert-butylsulfonyl)-7-methoxyimidazo[1,2-a]pyridin-3-yl)-3-methoxypyridin-2-amine]		> 1000	> 20	
COc1cc2ncc(-c3cc(F)c(OC)c(C(C)(C)O)c3)n2cc1S(=O)(=O)C(C)(C)C [Example 337, 2-(5-(6-(tert-butylsulfonyl)-7-methoxyimidazo[1,2-a]pyridin-3-yl)-3-fluoro-2-methoxyphenyl)propan-2-ol]	1 to 2.5	250 to 1000		
COc1cc2ncc(-c3cc(F)c(OC)c(OCCO)c3)n2cc1S(=O)(=O)C(C)(C)C [Example 338, 2-(5-(6-(tert-butylsulfonyl)-7-methoxyimidazo[1,2-a]pyridin-3-yl)-3-fluoro-2-methoxyphenoxy)ethan-1-ol]	2.5 to 20	> 1000		
COc1cc2ncc(-c3cc(F)c(OC)c(C4CC4)c3)n2cc1S(=O)(=O)C(C)(C)C [Example 340]	1 to 2.5	50 to 250		
CCCS(=O)(=O)Nc1nc(-c2cnc3cc(OC)c(S(=O)(=O)C(C)(C)C)cn23)ccc1OC [compound 314, N-(6-(6-(tert-butylsulfonyl)-7-methoxyimidazo[1,2-a]pyridin-3-yl)-3-methoxypyridin-2-yl)propane-1-sulfonamide]		> 1000	> 20	
COc1cc2ncc(-c3cc(F)nc(NCCS(C)(=N)=O)c3)n2cc1S(=O)(=O)C(C)(C)C (stereo not drawn) [compound 316]			2.5 to 20	250 to 1000
COc1cc(NCCCO)cc(-c2cnc3cc(OC)c(S(=O)(=O)C(C)(C)C)cn23)n1 [compound 321, 3-((2-(6-(tert-butylsulfonyl)-7-methoxyimidazo[1,2-a]pyridin-3-yl)-6-methoxypyridin-4-yl)amino)propan-1-ol]		> 1000	> 20	
COc1cc2ncc(-c3cc(F)c(OC)c(OCCCO)c3)n2cc1S(=O)(=O)C(C)(C)C [compound 339, 3-(5-(6-(tert-butylsulfonyl)-7-methoxyimidazo[1,2-a]pyridin-3-yl)-3-fluoro-2-methoxyphenoxy) propan-1-ol]	2.5 to 20	> 1000		
